# Earlier results, collected in article PMC7927942 (Journal of chemical information and modeling, 2020).
# Target: wild-type JAK2 JH2 (Homo sapiens, UniProt O60674)
# Settings: benchmark ligand from high-throughput screen
# Sequence of wild-type JAK2 JH2 (O60674 545-809 limits assumed): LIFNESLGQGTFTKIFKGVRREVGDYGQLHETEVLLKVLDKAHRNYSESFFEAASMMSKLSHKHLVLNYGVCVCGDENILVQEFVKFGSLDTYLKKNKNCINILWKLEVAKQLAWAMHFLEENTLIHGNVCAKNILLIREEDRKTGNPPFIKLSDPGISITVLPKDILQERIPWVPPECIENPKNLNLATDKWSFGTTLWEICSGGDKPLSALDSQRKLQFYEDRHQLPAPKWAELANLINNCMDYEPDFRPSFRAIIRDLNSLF
smiles,measurement,value
O=C(Nc1nc2cccc(-c3ccc(CN4CCS(=O)(=O)CC4)cc3)n2n1)C1CC1 [filgotinib],% binding at 50 μM,9%
